From patent US20080051429A1, “USE OF 4-AMINO-PIPERIDINES FOR TREATING SLEEP DISORDERS” (priority 2006, published 2008)
Structures can show the parent of a compound that is named as a salt. Where two headings read alike, the source gives them in different places.

Key:
5-HT2A receptor = target: T1, 5-HT2A receptor (Homo sapiens, UniProt P28223); assay: R-SAT functional receptor assay; format: cell-based
T1 construct: expressed in transfected cells; host or cells: NIH3T3 cells, pSI expression vector

alpha1b/B = target: T2, alpha1b/B (Mesocricetus auratus, UniProt P18841); assay: R-SAT selectivity profile; format: cell-based, hamster
T2 construct: expressed in transfected cells
Description: The functional receptor assay, Receptor Selection and Amplification Technology (R-SAT), was used (with minor modifications from that previously described U.S. Pat. No. 5,707,798) to screen compounds for efficacy at the 5-HT2A receptor. Briefly, NIH3T3 cells were grown in 96 well tissue culture plates to 70-80% confluence. Cells were transfected for 12-16 hours with plasmid DNAs using superfect (Qiagen Inc.) as per manufacture's protocols. R-SAT's were generally performed with 50 ng/well of receptor and 20 ng/well of Beta-galactosidase plasmid DNA. All receptor and G-protein constructs used were in the pSI mammalian expression vector (Promega Inc) as described in U.S. Pat. No. 5,707,798. The 5HT2A receptor gene was amplified by nested PCR from brain cDNA using the oligodeoxynucleotides based on the published sequence (see Saltzman et. al. Biochem. Biophys. Res. Comm. 181:1469-78 (1991)). Large-scale transfections, cells were transfected for 12-16 hours, then trypsinized and frozen in DMSO. […] Media was then removed from the plates and marker gene activity was measured by the addition of the beta-galactosidase substrate ONPG (in PBS with 5% NP-40). The resulting colorimetric reaction was measured in a spectrophotometric plate reader (Titertek Inc.)at […]. All data were analyzed using the computer program XLFit (IDBSm). […]

alpha1c/A = target: T3, alpha1c/A (Homo sapiens, UniProt P35348); assay: R-SAT selectivity profile; format: cell-based
T3 construct: expressed in transfected cells
T3 sequence (P35348 1-466): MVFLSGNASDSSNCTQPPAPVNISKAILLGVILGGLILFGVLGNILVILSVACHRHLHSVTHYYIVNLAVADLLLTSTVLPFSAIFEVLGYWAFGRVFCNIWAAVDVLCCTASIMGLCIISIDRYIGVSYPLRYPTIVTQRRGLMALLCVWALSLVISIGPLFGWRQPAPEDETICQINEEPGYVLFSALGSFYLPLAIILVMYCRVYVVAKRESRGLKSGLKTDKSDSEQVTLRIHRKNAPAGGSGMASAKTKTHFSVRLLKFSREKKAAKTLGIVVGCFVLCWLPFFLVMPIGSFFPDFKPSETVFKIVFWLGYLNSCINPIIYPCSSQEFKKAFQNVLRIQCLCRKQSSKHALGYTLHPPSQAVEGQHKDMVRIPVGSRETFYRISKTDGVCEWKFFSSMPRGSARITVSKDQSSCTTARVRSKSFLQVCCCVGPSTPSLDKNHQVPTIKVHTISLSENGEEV
Description: (§1) The functional receptor assay, Receptor Selection and Amplification Technology (R-SAT), was used (with minor modifications from that previously described U.S. Pat. No. 5,707,798) to screen compounds for efficacy at the 5-HT2A receptor. Briefly, NIH3T3 cells were grown in 96 well tissue culture plates to 70-80% confluence. Cells were transfected for 12-16 hours with plasmid DNAs using superfect (Qiagen Inc.) as per manufacture's protocols. R-SAT's were generally performed with 50 ng/well of receptor and 20 ng/well of Beta-galactosidase plasmid DNA. All receptor and G-protein constructs used were in the pSI mammalian expression vector (Promega Inc) as described in U.S. Pat. No. 5,707,798. The 5HT2A receptor gene was amplified by nested PCR from brain cDNA using the oligodeoxynucleotides based on the published sequence (see Saltzman et. al. Biochem. Biophys. Res. Comm. 181:1469-78 (1991)). Large-scale transfections, cells were transfected for 12-16 hours, then trypsinized and frozen in DMSO. Frozen cells were later thawed, plated at 10,000-40,000 cells per well of a 96 well plate that contained drug. With both methods, cells were then grown in a humidified atmosphere with 5% ambient CO2 for five days. Media was then removed from the plates and marker gene activity was measured by the addition of the beta-galactosidase substrate ONPG (in PBS with 5% NP-40). The resulting colorimetric reaction was measured in a spectrophotometric plate reader (Titertek Inc.)at […]. All data were analyzed using the computer program XLFit (IDBSm). Efficacy is the percent maximal repression compared to repression by a control compound (ritanserin in the case of 5HT2A). pIC50 is the negative of the log(IC50), where IC50 is the calculated concentration in Molar that produces 50% maximal repression.
(§2) R-SAT assays (as described in Example 42) were carried out with cells transfected with receptors (listed below) to determine the receptor selectivity profile for compound 26HCH16D. 5HT2A inverse agonist data (IC50 nM; % efficacy) were derived from detailed dose response curves (7 points in triplicate).

alpha1a/D = target: T4, alpha1a/D (Rattus norvegicus, UniProt P23944); assay: R-SAT selectivity profile; format: cell-based
T4 construct: expressed in transfected cells
Description: as §1, §2

5HT1A [1] = target: T5, 5HT1A (Rattus norvegicus, UniProt P19327); assay: R-SAT selectivity profile; format: cell-based; settings: antagonist
T5 construct: expressed in transfected cells
Description: as §1, §2

H1 = H1 (Homo sapiens, UniProt P35367); assay: R-SAT selectivity profile; format: cell-based; set-up: expressed in transfected cells
Description: as §1, §2

5HT2C = target: T6, 5HT2C (Homo sapiens, UniProt P28335); assay: R-SAT selectivity profile; format: cell-based; set-up: expressed in transfected cells
T6 sequence (P28335 33-458): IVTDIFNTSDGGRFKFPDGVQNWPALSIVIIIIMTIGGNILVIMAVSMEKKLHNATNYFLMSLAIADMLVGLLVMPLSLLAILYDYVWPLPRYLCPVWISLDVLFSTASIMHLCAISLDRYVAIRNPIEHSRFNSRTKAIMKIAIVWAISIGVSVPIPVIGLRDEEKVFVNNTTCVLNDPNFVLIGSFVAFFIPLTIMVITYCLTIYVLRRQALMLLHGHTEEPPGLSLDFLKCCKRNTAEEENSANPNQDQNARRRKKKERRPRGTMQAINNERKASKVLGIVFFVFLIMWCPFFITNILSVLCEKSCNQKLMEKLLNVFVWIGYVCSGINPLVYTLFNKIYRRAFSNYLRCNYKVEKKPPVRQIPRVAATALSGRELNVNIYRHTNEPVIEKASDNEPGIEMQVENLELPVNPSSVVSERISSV
Description: as §1, §2

5HT1E = 5HT1E (Homo sapiens, UniProt P28566); assay: R-SAT selectivity profile; format: cell-based; set-up: expressed in transfected cells; settings: agonist
Description: as §1, §2

5HT2B = 5HT2B (Homo sapiens, UniProt P41595); assay: R-SAT selectivity profile; format: cell-based; set-up: expressed in transfected cells
Description: as §1, §2

D2 = D2 (Homo sapiens, UniProt P14416); assay: R-SAT selectivity profile; format: cell-based; set-up: expressed in transfected cells
Description: as §1, §2

5HT1A [2] = target: T7, 5HT1A (Homo sapiens, UniProt P08908); assay: R-SAT selectivity profile; format: cell-based; set-up: expressed in transfected cells; settings: agonist
T7 sequence (P08908 1-422): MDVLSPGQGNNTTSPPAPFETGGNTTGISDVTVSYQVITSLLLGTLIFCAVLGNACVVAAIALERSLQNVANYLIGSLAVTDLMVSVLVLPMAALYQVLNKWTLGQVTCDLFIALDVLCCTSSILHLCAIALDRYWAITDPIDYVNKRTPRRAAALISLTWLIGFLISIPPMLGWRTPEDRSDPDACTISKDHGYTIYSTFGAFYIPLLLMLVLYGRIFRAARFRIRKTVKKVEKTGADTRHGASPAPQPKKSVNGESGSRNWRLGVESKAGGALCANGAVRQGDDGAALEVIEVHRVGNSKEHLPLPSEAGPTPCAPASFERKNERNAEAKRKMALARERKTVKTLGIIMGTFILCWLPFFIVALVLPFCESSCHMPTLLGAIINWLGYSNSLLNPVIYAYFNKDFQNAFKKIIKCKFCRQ
Description: as §1, §2

Male NSA mice = assay: In vivo determination of behavioral effects (motor activity, MK-801 hyperactivity); settings: p.o.; minimum effective dose vs vehicle control
Description: Male NSA mice (Harlan; San Deigo, Calif.) were used as subjects. Mice weighed 20-30 g. Animals were housed 8/cage in the One Cage system (One Cage; Lab Products, Inc., Seaford, Del.) with bedding (⅛ inch Bed “O” Cob; Harlan Teklad, Madison, Wis.) in a room with controlled temperature 22±3° C. and a 12 hour light:dark cycle (lights on 6 am). Water and standard rodent chow (Harlan Teklad) were continuously available in the home cage. For testing, plastic locomotor activity cages (20×20×30 cm; AccuScan Instruments, Columbus, Ohio) were equipped with photocell beams for monitoring horizontal activity. Data were collected using Versamax computer software (AccuScan Instruments). For determination of spontaneous activity, test compounds were administered alone (s.c. 10 min or p.o. 30 min before the session). For hyperactivity experiments, mice were injected with 0.3 mg/kg MK-8011.p. 15 min precession (the peak dose for producing hyperactivity in an inverted-U dose-effect curve as determined in pilot experiments) in combination with vehicle or test compound. Motor activity data were collected during a 15 min session in a lit room. Mice had no prior exposure to the motor cages. Each dose or dose combination was tested in a separate group of mice (n=8). Distance traveled (cm) was calculated and averaged across animals in a group. […]

Sequence of D2 (P14416 whole entry): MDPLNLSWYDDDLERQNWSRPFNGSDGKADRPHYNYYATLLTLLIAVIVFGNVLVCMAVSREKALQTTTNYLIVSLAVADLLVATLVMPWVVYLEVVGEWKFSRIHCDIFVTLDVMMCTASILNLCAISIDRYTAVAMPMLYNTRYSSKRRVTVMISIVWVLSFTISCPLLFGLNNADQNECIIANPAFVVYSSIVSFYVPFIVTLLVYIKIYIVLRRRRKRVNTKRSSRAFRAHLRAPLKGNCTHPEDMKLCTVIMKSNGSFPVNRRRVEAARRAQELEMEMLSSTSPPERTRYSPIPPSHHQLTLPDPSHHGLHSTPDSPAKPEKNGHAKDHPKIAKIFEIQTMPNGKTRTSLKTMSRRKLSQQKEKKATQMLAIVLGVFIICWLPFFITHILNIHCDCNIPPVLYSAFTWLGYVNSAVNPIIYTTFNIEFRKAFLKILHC
T1 sequence (P28223 whole entry): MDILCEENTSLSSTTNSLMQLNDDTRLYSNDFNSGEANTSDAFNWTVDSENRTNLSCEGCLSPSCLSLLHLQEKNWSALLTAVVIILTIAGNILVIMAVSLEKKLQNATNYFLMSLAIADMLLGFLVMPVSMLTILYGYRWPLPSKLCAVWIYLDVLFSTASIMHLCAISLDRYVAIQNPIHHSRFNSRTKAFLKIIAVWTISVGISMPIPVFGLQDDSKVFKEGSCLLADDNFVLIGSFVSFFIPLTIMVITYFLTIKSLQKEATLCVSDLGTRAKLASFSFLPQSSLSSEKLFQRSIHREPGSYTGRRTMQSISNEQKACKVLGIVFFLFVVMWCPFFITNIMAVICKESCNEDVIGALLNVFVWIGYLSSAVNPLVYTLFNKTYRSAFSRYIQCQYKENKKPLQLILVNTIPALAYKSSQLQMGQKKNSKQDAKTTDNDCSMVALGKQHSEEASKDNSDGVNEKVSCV
Sequence of H1 (P35367 whole entry): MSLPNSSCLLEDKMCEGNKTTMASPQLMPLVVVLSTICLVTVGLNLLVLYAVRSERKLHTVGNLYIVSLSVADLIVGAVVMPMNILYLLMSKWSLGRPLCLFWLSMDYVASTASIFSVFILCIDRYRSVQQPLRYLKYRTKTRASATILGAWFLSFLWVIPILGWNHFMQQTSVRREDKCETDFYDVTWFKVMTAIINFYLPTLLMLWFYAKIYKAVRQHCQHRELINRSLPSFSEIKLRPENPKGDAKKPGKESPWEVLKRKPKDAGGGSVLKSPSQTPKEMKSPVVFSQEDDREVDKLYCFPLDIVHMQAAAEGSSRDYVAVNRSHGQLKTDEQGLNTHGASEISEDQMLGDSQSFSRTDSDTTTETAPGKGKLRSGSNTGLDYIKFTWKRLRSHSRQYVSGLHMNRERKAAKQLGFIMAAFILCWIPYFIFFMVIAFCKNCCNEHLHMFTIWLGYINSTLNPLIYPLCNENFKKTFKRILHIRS
T4 sequence (P23944 whole entry): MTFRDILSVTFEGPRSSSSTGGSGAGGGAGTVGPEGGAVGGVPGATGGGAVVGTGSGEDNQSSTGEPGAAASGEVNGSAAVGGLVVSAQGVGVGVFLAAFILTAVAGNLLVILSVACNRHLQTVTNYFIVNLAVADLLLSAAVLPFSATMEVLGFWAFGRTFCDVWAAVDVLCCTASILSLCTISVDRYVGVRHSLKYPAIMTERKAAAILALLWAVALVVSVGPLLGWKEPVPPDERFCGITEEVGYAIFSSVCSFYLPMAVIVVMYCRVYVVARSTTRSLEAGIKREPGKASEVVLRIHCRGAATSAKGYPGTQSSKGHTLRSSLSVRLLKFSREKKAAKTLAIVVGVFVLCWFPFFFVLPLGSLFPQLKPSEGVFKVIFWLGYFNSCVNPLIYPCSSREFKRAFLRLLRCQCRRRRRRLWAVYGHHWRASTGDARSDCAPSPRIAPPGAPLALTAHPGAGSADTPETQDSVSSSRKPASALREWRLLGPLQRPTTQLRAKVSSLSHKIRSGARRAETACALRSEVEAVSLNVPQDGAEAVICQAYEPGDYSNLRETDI
T2 sequence (P18841 whole entry): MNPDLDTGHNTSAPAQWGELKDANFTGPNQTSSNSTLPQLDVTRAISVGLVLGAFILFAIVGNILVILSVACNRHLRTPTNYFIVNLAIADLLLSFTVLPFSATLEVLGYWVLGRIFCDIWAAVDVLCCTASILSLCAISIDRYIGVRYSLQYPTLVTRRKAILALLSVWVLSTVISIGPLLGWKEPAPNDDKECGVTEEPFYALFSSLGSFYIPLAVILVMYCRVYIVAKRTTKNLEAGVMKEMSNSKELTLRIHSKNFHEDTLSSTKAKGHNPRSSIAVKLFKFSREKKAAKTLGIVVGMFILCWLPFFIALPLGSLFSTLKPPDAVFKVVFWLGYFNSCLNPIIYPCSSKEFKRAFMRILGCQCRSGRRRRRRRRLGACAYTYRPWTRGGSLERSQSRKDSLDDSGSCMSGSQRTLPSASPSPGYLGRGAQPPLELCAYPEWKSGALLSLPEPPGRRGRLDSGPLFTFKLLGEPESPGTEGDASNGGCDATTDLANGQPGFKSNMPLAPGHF
Sequence of 5HT2B (P41595 whole entry): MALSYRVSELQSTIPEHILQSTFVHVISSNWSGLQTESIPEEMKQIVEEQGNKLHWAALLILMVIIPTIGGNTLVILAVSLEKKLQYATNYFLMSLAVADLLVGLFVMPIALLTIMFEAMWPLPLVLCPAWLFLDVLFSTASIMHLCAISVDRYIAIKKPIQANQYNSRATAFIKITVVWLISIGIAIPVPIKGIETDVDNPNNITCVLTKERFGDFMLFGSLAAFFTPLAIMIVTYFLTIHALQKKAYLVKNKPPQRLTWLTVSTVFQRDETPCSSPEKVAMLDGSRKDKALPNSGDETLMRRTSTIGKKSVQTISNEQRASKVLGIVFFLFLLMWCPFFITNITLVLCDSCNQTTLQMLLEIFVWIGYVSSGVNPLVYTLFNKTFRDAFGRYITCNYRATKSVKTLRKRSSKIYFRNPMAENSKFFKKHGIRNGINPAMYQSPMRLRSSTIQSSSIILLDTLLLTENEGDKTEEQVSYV
Sequence of 5HT1E (P28566 whole entry): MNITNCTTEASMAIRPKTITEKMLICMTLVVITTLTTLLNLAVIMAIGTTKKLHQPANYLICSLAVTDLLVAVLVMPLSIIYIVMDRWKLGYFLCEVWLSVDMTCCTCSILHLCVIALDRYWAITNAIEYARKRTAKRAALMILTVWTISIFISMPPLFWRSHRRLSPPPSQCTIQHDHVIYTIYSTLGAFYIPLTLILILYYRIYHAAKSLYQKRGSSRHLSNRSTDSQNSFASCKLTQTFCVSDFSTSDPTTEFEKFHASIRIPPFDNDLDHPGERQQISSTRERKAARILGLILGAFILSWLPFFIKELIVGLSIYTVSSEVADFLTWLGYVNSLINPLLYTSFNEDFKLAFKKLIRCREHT
T5 sequence (P19327 whole entry): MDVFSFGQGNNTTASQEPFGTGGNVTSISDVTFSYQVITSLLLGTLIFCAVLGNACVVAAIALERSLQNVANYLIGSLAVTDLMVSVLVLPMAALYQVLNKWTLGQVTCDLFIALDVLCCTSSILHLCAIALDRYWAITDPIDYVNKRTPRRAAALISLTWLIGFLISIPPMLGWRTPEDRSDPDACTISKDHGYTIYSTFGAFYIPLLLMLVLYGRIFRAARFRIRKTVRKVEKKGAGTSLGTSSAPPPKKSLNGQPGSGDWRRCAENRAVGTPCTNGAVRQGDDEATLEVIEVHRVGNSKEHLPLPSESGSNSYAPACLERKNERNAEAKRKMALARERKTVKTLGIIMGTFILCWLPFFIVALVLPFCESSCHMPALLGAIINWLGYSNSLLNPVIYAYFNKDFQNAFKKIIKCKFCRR

Cc1ccc(CN(C(=O)NCc2ccccc2)C2CCN(Cc3ccccc3)CC2)cc1 [Example 26HCH16D, N-((4-Methylphenyl)methyl)-N-(1-(phenylmethyl)piperidin-4-yl)-N′-phenylmethylcarbamide hydrochloride]
IC50 (5-HT2A receptor; IC50, Inverse Agonist, 7 points in triplicate): 900 pM | selectivity as 5-HT2A inverse agonist (5-HT2A receptor; in words): highly selective | Emax (5-HT2A receptor; read-out: % efficacy): 79% | Efficacy (alpha1b/B; agonist): nr (nr=activity less than 30% at all doses tested (3, 30, 300, 3000 nM), therefore EC50/IC50 greater than 3000 nM) | Efficacy (alpha1b/B; antagonist): nr (nr=activity less than 30% at all doses tested (3, 30, 300, 3000 nM), therefore EC50/IC50 greater than 3000 nM) | initial concentration at which at least 30% efficacy observed (alpha1c/A; Antagonist, 4 dose profiling): 3000 nM | Efficacy (alpha1c/A; agonist): nr (nr=activity less than 30% at all doses tested (3, 30, 300, 3000 nM), therefore EC50/IC50 greater than 3000 nM) | actual efficacy figure (alpha1c/A; antagonist): 46% | Efficacy (alpha1a/D; agonist): nr (nr=activity less than 30% at all doses tested (3, 30, 300, 3000 nM), therefore EC50/IC50 greater than 3000 nM) | Efficacy (alpha1a/D; antagonist): nr (nr=activity less than 30% at all doses tested (3, 30, 300, 3000 nM), therefore EC50/IC50 greater than 3000 nM) | Efficacy (5HT1A [1]): nr (nr=activity less than 30% at all doses tested (3, 30, 300, 3000 nM), therefore EC50/IC50 greater than 3000 nM) | initial concentration at which at least 30% efficacy observed (H1; Antagonist, 4 dose profiling): 3000 nM | Efficacy (H1; agonist): nr (nr=activity less than 30% at all doses tested (3, 30, 300, 3000 nM), therefore EC50/IC50 greater than 3000 nM) | actual efficacy figure (H1; antagonist): 30% | initial concentration at which at least 30% efficacy observed (5HT2C; Inverse Agonist, 4 dose profiling): 3000 nM | actual efficacy figure (5HT2C; inverse agonist): 79% | Efficacy (5HT1E): nr (nr=activity less than 30% at all doses tested (3, 30, 300, 3000 nM), therefore EC50/IC50 greater than 3000 nM) | initial concentration at which at least 30% efficacy observed (5HT2B; Antagonist, 4 dose profiling): 3000 nM | actual efficacy figure (5HT2B; antagonist): 60% | actual efficacy figure (D2): 73% | initial concentration at which at least 30% efficacy observed (D2; Antagonist, 4 dose profiling): 3000 nM | Efficacy (D2; agonist): nr (nr=activity less than 30% at all doses tested (3, 30, 300, 3000 nM), therefore EC50/IC50 greater than 3000 nM) | Efficacy (5HT1A [2]): nr (nr=activity less than 30% at all doses tested (3, 30, 300, 3000 nM), therefore EC50/IC50 greater than 3000 nM)

CC(C)COc1ccc(CC(=O)N(Cc2ccc(F)cc2)C2CCN(CCCN3C(=O)OC[C@@H]3C(C)C)CC2)cc1.O=C(O)C(=O)O [Example 117NLS01, N-(4-Fluorobenzyl)-2-(4-isobutoxyphenyl)-N-{1-[3-(4-(S)-isopropyl-2-oxo-oxazolidin-3-yl)propyl]piperidin-4-yl}acetamide, oxalate]
Emax (5-HT2A receptor; 120 h, read-out: 5HT2A % INH): 104% | IC50 (5-HT2A receptor; Table 5, read-out: 5HT2A pIC50 (converted)): 200 pM | MED in vivo po (Male NSA mice): 1 mg/kg
